The structures appear in SMILES notation. ≈ marks a conversion by molar mass, not a printed value.

The values that follow come from DBAASP.

Some test systems named below: Pseudomonas aeruginosa; Staphylococcus aureus; Bacillus subtilis 168; Escherichia coli B; Escherichia coli JW0013.
Holding throughout (assay): ≥ marks a high value that may be exact or a test limit, other limits are often not marked, values filed in µg/mL are converted to µM
Experiment [1] relates to Staphylococcus aureus NCTC 8325.
Experiment [2] concerns Candida albicans ATCC 90028.
The test system of experiment [3] is Escherichia coli ATCC 25922.
Experiment [4] deals with Escherichia coli DH5alpha.

The compound `CC(C)C[C@H](NC(=O)[C@@H](NC(=O)[C@H](CCCCN)NC(=O)[C@H](CO)NC(=O)[C@H](CC(C)C)NC(=O)[C@H](CC(C)C)NC(=O)[C@@H](NC(=O)[C@H](C)NC(=O)[C@H](CC(C)C)NC(=O)[C@H](Cc1ccccc1)NC(=O)[C@@H]1CCCN1C(=O)[C@H](CC(C)C)NC(=O)[C@@H](N)Cc1ccccc1)[C@@H](C)O)C(C)C)C(N)=O` [FLPFLATLLSKVL] returned an MIC in [1] of no less than 100 µM.
Consider `CC[C@H](C)[C@H](NC(=O)CNC(=O)[C@H](C)NC(=O)[C@@H](NC(=O)[C@@H](NC(=O)[C@@H]1CCCN1C(=O)[C@H](CC(C)C)NC(=O)[C@@H](N)Cc1ccccc1)[C@@H](C)CC)[C@@H](C)CC)C(=O)N[C@@H](C)C(=O)N[C@@H](C)C(=O)N[C@@H](CCCCN)C(=O)N[C@H](C(=O)N[C@@H](Cc1ccccc1)C(=O)N1CCC[C@H]1C(=O)N[C@@H](CCCCN)C(=O)N[C@H](C(=O)N[C@@H](Cc1ccccc1)C(=O)N[C@H]1CSSC[C@@H](C(=O)O)NC(=O)[C@H](CCCCN)NC(=O)[C@H](CCCCN)NC(=O)[C@H](CO)NC(=O)[C@H]([C@@H](C)CC)NC(=O)[C@H](C)NC1=O)[C@@H](C)CC)C(C)C` [FLPIIAGIAAKVFPKIFCAISKKC], for which the MIC in [2] turned out to be 7 µM (≈ 18 µg/mL); in experiment [1] it was 5 µM (≈ 12.9 µg/mL); in experiment [3], 14 µM (≈ 36.1 µg/mL).
`CC[C@H](C)[C@H](NC(=O)[C@H](Cc1cnc[nH]1)NC(=O)[C@H](CCCCN)NC(=O)[C@H](CC(C)C)NC(=O)[C@H](CC(C)C)NC(=O)[C@H](CO)NC(=O)[C@H](CCSC)NC(=O)[C@H](Cc1ccccc1)NC(=O)[C@H](CCCCN)NC(=O)CN)C(=O)N[C@@H](CC(C)C)C(=O)N[C@@H](CCCCN)C(N)=O` [GKFMSLLKHILK]: the MIC with Pseudomonas aeruginosa was 30 µM (≈ 42.4 µg/mL); in the experiment with Staphylococcus aureus, 43.3 µM (≈ 61.2 µg/mL); against Bacillus subtilis 168, 1.5 µM (≈ 2.12 µg/mL); against Escherichia coli B it was 5.8 µM (≈ 8.2 µg/mL).
For the compound `CC[C@H](C)[C@H](NC(=O)[C@H](Cc1cnc[nH]1)NC(=O)[C@H](CCCCN)NC(=O)[C@H](CC(C)C)NC(=O)[C@H](CC(C)C)NC(=O)[C@H](Cc1cnc[nH]1)NC(=O)[C@H](CCSC)NC(=O)[C@H](Cc1c[nH]c2ccccc12)NC(=O)[C@H](CCCCN)NC(=O)CN)C(=O)N[C@@H](CC(C)C)C(=O)N[C@@H](CCCCN)C(N)=O` [GKWMHLLKHILK], the MIC is 46.7 µM (≈ 70.2 µg/mL) in the experiment on Pseudomonas aeruginosa, 12.5 µM (≈ 18.8 µg/mL) with Staphylococcus aureus, 1.1 µM (≈ 1.65 µg/mL) in the experiment with Bacillus subtilis 168 and 2.2 µM (≈ 3.31 µg/mL) in the experiment with Escherichia coli B.
Regarding `CC(C)C[C@H](NC(=O)[C@H](CCCCN)NC(=O)[C@H](CCCCN)NC(=O)[C@H](CC(C)C)NC(=O)[C@H](CC(C)C)NC(=O)[C@H](CCCCN)NC(=O)[C@H](CCCCN)NC(=O)[C@H](CC(C)C)NC(=O)[C@H](CC(C)C)NC(=O)[C@H](CCCCN)NC(=O)[C@H](CCCCN)NC(=O)[C@H](CC(C)C)NC(=O)[C@H](CC(C)C)NC(=O)CN)C(N)=O` [GLLKKLLKKLLKKL], the MIC amounted to 2 µM (≈ 3.27 µg/mL) in the experiment with Bacillus subtilis 168 and 6 µM (≈ 9.81 µg/mL) in experiment [4].
On to `CC[C@H](C)[C@H](NC(=O)CNC(=O)[C@H](CCC(N)=O)NC(=O)[C@H](Cc1ccccc1)NC(=O)[C@@H](NC(=O)[C@H](CCCCN)NC(=O)[C@H](CCCCN)NC(=O)[C@H](CC(C)C)NC(=O)[C@H](C)NC(=O)[C@H](CC(N)=O)NC(=O)[C@H](CC(C)C)NC(=O)CN)C(C)C)C(=O)N[C@@H](Cc1cnc[nH]1)C(=O)N[C@@H](CCC(=O)O)C(=O)N[C@@H](C)C(=O)N[C@H](C(=O)N[C@@H](CCCCN)C(=O)N[C@@H](CC(C)C)C(=O)N[C@H](C(=O)N[C@@H](CC(N)=O)C(=O)N[C@@H](CCCCN)C(=O)N[C@@H](Cc1cnc[nH]1)C(=O)N[C@H](C(=O)N[C@@H](CCC(N)=O)C(=O)O)C(C)C)[C@@H](C)CC)[C@@H](C)CC` [GLNALKKVFQGIHEAIKLINKHVQ], for which the results for the MIC in experiment [1] and in experiment [3] were no less than 80 µM and 20 µM (≈ 54 µg/mL), respectively.
With `CC[C@H](C)[C@H](NC(=O)[C@H](CCCN=C(N)N)NC(=O)[C@H](CCCN=C(N)N)NC(=O)[C@@H]1CCCN1C(=O)[C@@H]1CCCN1C(=O)[C@H](CCCN=C(N)N)NC(=O)[C@@H]1CCCN1C(=O)[C@H](CCCN=C(N)N)NC(=O)[C@@H]1CCCN1C(=O)[C@H](CC(C)C)NC(=O)[C@H](Cc1ccc(O)cc1)NC(=O)[C@@H]1CCCN1C(=O)[C@H](Cc1cnc[nH]1)NC(=O)[C@H](CCCCN)NC(=O)[C@H](CC(=O)O)NC(=O)[C@@H](N)C(C)C)C(=O)N[C@@H](Cc1ccc(O)cc1)C(=O)N[C@@H](CC(N)=O)C(=O)N[C@@H](CCCN=C(N)N)C(N)=O` [VDKHPYLPRPRPPRRIYNR], the MIC against Escherichia coli JW0013 was found to be 1.97 µM (≈ 4.8 µg/mL).
Take `CC[C@H](C)[C@H](NC(=O)[C@H](CCCN=C(N)N)NC(=O)[C@H](CCCN=C(N)N)NC(=O)[C@@H]1CCCN1C(=O)[C@@H]1CCCN1C(=O)[C@H](CCCN=C(N)N)NC(=O)[C@@H]1CCCN1C(=O)[C@H](CCCN=C(N)N)NC(=O)[C@@H]1CCCN1C(=O)[C@H](CC(C)C)NC(=O)[C@H](CCCN=C(N)N)NC(=O)[C@H](Cc1cnc[nH]1)NC(=O)[C@H](CCCCN)NC(=O)[C@H](CCCCN)NC(=O)[C@H](CC(=O)O)NC(=O)[C@@H](N)C(C)C)C(=O)N[C@@H](Cc1ccc(O)cc1)C(=O)N[C@@H](CC(N)=O)C(=O)N[C@@H](CCCN=C(N)N)C(N)=O` [VDKKHRLPRPRPPRRIYNR]: the MIC against Escherichia coli JW0013 turned out to be 0.978 µM (≈ 2.4 µg/mL).
Compound `CC[C@H](C)[C@H](NC(=O)[C@H](CCCN=C(N)N)NC(=O)[C@H](CCCN=C(N)N)NC(=O)[C@@H]1CCCN1C(=O)[C@@H]1CCCN1C(=O)[C@H](CCCN=C(N)N)NC(=O)[C@@H]1CCCN1C(=O)[C@H](Cc1cnc[nH]1)NC(=O)[C@@H]1CCCN1C(=O)[C@H](CC(C)C)NC(=O)[C@H](Cc1ccc(O)cc1)NC(=O)[C@@H]1CCCN1C(=O)[C@@H]1CCCN1C(=O)[C@H](CCCCN)NC(=O)[C@H](CC(=O)O)NC(=O)[C@@H](N)C(C)C)C(=O)N[C@@H](Cc1ccc(O)cc1)C(=O)N[C@@H](CC(N)=O)C(=O)N[C@@H](CCCN=C(N)N)C(N)=O` [VDKPPYLPHPRPPRRIYNR] registered an MIC with Escherichia coli JW0013 of 2.02 µM (≈ 4.8 µg/mL).
Regarding `CC[C@H](C)[C@H](NC(=O)[C@H](CCCN=C(N)N)NC(=O)[C@H](CCCN=C(N)N)NC(=O)[C@@H]1CCCN1C(=O)[C@@H]1CCCN1C(=O)[C@H](CCCN=C(N)N)NC(=O)[C@H](Cc1ccc(O)cc1)NC(=O)[C@H](CCCN=C(N)N)NC(=O)[C@@H]1CCCN1C(=O)[C@H](CC(C)C)NC(=O)[C@H](Cc1ccc(O)cc1)NC(=O)[C@@H]1CCCN1C(=O)[C@@H]1CCCN1C(=O)[C@H](CCCCN)NC(=O)[C@H](CC(=O)O)NC(=O)[C@@H](N)C(C)C)C(=O)N[C@@H](Cc1ccc(O)cc1)C(=O)N[C@@H](CC(N)=O)C(=O)N[C@@H](CCCN=C(N)N)C(N)=O` [VDKPPYLPRYRPPRRIYNR], in the experiment on Escherichia coli JW0013, the MIC was found to be 1.95 µM (≈ 4.8 µg/mL).
On the same count and under the same terms, the result for `CC[C@H](C)[C@H](NC(=O)[C@H](CCCN=C(N)N)NC(=O)[C@H](CCCN=C(N)N)NC(=O)[C@@H]1CCCN1C(=O)[C@@H]1CCCN1C(=O)[C@H](CCCN=C(N)N)NC(=O)[C@@H]1CCCN1C(=O)[C@H](CCCN=C(N)N)NC(=O)[C@@H]1CCCN1C(=O)[C@H](CCCN=C(N)N)NC(=O)[C@H](Cc1ccc(O)cc1)NC(=O)[C@H](Cc1cnc[nH]1)NC(=O)[C@H](CCCN=C(N)N)NC(=O)[C@H](CCCCN)NC(=O)[C@H](CC(=O)O)NC(=O)[C@@H](N)C(C)C)C(=O)N[C@@H](Cc1ccc(O)cc1)C(=O)N[C@@H](CC(N)=O)C(=O)N[C@@H](CCCN=C(N)N)C(N)=O` [VDKRHYRPRPRPPRRIYNR] reads 0.316 µM (≈ 0.8 µg/mL).
In turn, `CC[C@H](C)[C@H](NC(=O)[C@H](CCCN=C(N)N)NC(=O)[C@H](CCCN=C(N)N)NC(=O)[C@@H]1CCCN1C(=O)[C@@H]1CCCN1C(=O)[C@H](CCCN=C(N)N)NC(=O)[C@H](CCCCN)NC(=O)[C@H](CCCN=C(N)N)NC(=O)[C@@H]1CCCN1C(=O)[C@H](CC(C)C)NC(=O)[C@H](CCCN=C(N)N)NC(=O)[C@@H]1CCCN1C(=O)[C@H](CCCN=C(N)N)NC(=O)[C@H](CCCCN)NC(=O)[C@H](CC(=O)O)NC(=O)[C@@H](N)C(C)C)C(=O)N[C@@H](Cc1ccc(O)cc1)C(=O)N[C@@H](CC(N)=O)C(=O)N[C@@H](CCCN=C(N)N)C(N)=O` [VDKRPRLPRKRPPRRIYNR] showed an MIC with Escherichia coli JW0013 of 0.647 µM (≈ 1.6 µg/mL).
Same read-out and setting: the result for `CC[C@H](C)[C@H](NC(=O)[C@H](CCCN=C(N)N)NC(=O)[C@H](CCCN=C(N)N)NC(=O)[C@@H]1CCCN1C(=O)[C@@H]1CCCN1C(=O)[C@H](CCCN=C(N)N)NC(=O)[C@@H]1CCCN1C(=O)[C@H](CCCN=C(N)N)NC(=O)[C@@H]1CCCN1C(=O)[C@H](CC(C)C)NC(=O)[C@H](CCCN=C(N)N)NC(=O)[C@@H]1CCCN1C(=O)[C@H](CCCN=C(N)N)NC(=O)[C@H](CCCCN)NC(=O)[C@H](CC(=O)O)NC(=O)[C@@H](N)C(C)C)C(=O)N[C@@H](Cc1ccc(O)cc1)C(=O)N[C@@H](CC(N)=O)C(=O)N[C@@H](CCCN=C(N)N)C(N)=O` [VDKRPRLPRPRPPRRIYNR] reads 0.532 µM (≈ 1.3 µg/mL).
Turning to `CC[C@H](C)[C@H](NC(=O)[C@H](CCCCN)NC(=O)CNC(=O)[C@H](CC(C)C)NC(=O)[C@@H](NC(=O)[C@H](CCCCN)NC(=O)[C@H](CCCCN)NC(=O)[C@H](Cc1c[nH]c2ccccc12)NC(=O)[C@H](CC(N)=O)NC(=O)[C@@H](N)C(C)C)[C@@H](C)CC)C(N)=O` [VNWKKILGKI], the MIC is 75 µM (≈ 89.8 µg/mL) against Pseudomonas aeruginosa, greater than 100 µM against Staphylococcus aureus, 4.7 µM (≈ 5.63 µg/mL) against Bacillus subtilis 168 and 23.3 µM (≈ 27.9 µg/mL) against Escherichia coli B.
For `CC[C@H](C)[C@H](NC(=O)[C@H](CCCCN)NC(=O)[C@H](CCCCN)NC(=O)[C@H](Cc1c[nH]c2ccccc12)NC(=O)[C@H](CC(N)=O)NC(=O)[C@@H](N)C(C)C)C(=O)N[C@@H](CC(C)C)C(=O)N[C@@H](CCCCN)C(=O)N[C@@H](CCCCN)C(=O)N[C@H](C(=O)N[C@H](C(=O)N[C@@H](CCCCN)C(=O)N[C@H](C(=O)N[C@H](C(=O)N[C@@H](CCCCN)C(N)=O)C(C)C)C(C)C)[C@@H](C)CC)[C@@H](C)CC` [VNWKKILKKIIKVVK], the minimum inhibitory concentration (MIC) with Pseudomonas aeruginosa is 26.1 µM (≈ 47.9 µg/mL); with Staphylococcus aureus, 9.6 µM (≈ 17.6 µg/mL); in the experiment with Bacillus subtilis 168, 0.7 µM (≈ 1.29 µg/mL); with Escherichia coli B, 0.7 µM (≈ 1.29 µg/mL).
